Measurements: PubChem BioAssay (NCI)
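Each compound was tested at five concentrations against cells in 96-well plates for 48 hours. GI50 = concentration required for 50% inhibition of growth. Definition used: TGI = concentration required for complete inhibition of growth.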

Columns and labels:
Experiment in all cases: inhibition of tumour cell growth, NCI panel, 48 h
UO-31 renal = test system: UO-31 renal
NCI-H460 lung = test system: NCI-H460 lung
UACC-257 melanoma = test system: UACC-257 melanoma
CCRF-CEM leukemia = test system: CCRF-CEM leukemia
SNB-75 CNS = test system: SNB-75 CNS
UACC-62 melanoma = test system: UACC-62 melanoma
SF-539 CNS = test system: SF-539 CNS
KM12 colon = test system: KM12 colon
HS 578T breast = test system: HS 578T breast
HCT-15 colon = test system: HCT-15 colon

SMILES	TGI (UO-31 renal) [µM]	TGI (NCI-H460 lung) [µM]	TGI (UACC-257 melanoma) [µM]	TGI (CCRF-CEM leukemia) [µM]	TGI (SNB-75 CNS) [µM]	TGI (UACC-62 melanoma) [µM]	TGI (SF-539 CNS) [µM]	TGI (KM12 colon) [µM]	TGI (HS 578T breast) [µM]	TGI (HCT-15 colon) [µM]	GI50 (UO-31 renal) [µM]	GI50 (NCI-H460 lung) [µM]	GI50 (UACC-257 melanoma) [µM]	GI50 (CCRF-CEM leukemia) [µM]	GI50 (SNB-75 CNS) [µM]	GI50 (UACC-62 melanoma) [µM]	GI50 (SF-539 CNS) [µM]	GI50 (KM12 colon) [µM]	GI50 (HS 578T breast) [µM]	GI50 (HCT-15 colon) [µM]
COC(=O)c1ccccc1NC(=O)/C(=N\NC(C)(C)C)C(C#N)c1nc(-c2ccc([N+](=O)[O-])cc2)cs1 (stereo not given)	> 100	> 100	> 100	> 100	> 100	> 100	> 100	> 100	> 100	> 100										
CCC[C@H](N[C@@H]1CCc2cc(F)cc(F)c2C1)C(=O)Nc1cn(C(C)(C)CNCC(C)(C)C)cn1	22.1	53.8	37.7	> 63.6	64.8	34.1	34.6	> 88.7	64.4	75.2	6.33	19.5	13.2	14.7	3.68	15.6	16.7	24.1	15.3	15.7
CO[C@@H]1[C@@H](OC2OC(C)C(OC3CC(C)(O)C(OC(=O)CC(C)C)C(C)O3)C(N(C)C)C2O)[C@@H](CC=O)C[C@@H](C)C(=O)/C=C/C2O[C@H]2C[C@@H](C)OC(=O)C[C@H]1OC(C)=O (stereo not given in full)	73.6	41.8	34	34.3	> 100	60.1	38.5	32.2	> 100	36										
CC(C)(C)c1ccc([I+]c2ccc(C(C)(C)C)cc2)cc1	14.8	4.16	2.54	9.14	6.1	2.31	10.2	2.83	7.69	18.2	3.62	1.66	0.595	1.17	1.44	0.69	2.08	1.04	1.98	5.08
C=CC1CC12C(=O)C1OC2(C)C2C(=O)c3c(ccc4c3ccc3ccccc34)C(=O)C12 (stereo not given)	> 100	> 100	> 100	> 100	> 100		> 100	> 100	> 100	80.6	> 100	37.1	89.4	17.1	> 100		47.2	13.1	68.1	14.2
O=C1c2ccccc2C(=O)N1c1ccc(S(=O)(=O)Nc2ncccn2)cc1	> 100	> 100	> 100	> 100	> 100	> 100	> 100	> 100	> 100	> 100	> 100	> 100	> 100	9.79	> 100	> 100	> 100	> 100	> 100	> 100
CC1(C)N=C(N)N=C(N)N1c1ccc(F)c(C(F)(F)F)c1	> 100	> 100	> 100	> 100	> 100	> 100	> 100	> 100	> 100	> 100	8.86	0.42	> 57.8	0.532		2.25	0.71	1.81	21.2	1.58
CC(=O)O[C@@H]1CO[C@H]2O[C@H]3[C@@H](C(C=O)=C[C@H](O)[C@@H]4C5=C(C(C)C)CC[C@]5(C)CC[C@@]34C)[C@@]2(O)C1=O	0.598	0.699	0.629	0.418	1.35	1.06	0.37	1.46	0.594	0.687										
O=C1C=C(Nc2ccccc2C(=O)CC(=O)C(=O)Nc2cccc(C(F)(F)F)c2)c2ccccc2C1=O	> 80.1	> 100	31.8	44.7	> 96.9	32.3	49	> 95.9	66.2	> 100										
CCCN(CCC)c1ccc(CO)c(C)c1	> 100	> 100	67.3	59.9	> 100	> 100	> 100	> 100	> 100	> 100	> 100	> 100	11.6	17.7	68.2	22.8	> 100	> 100	42.2	51.9
CCc1c2c(nc3cc4c(cc13)OCO4)-c1cc3c(c(=O)n1C2)COC(=O)[C@@]3(CC)OC(=O)CN	0.0794	< 0.01	0.286	< 0.01	< 0.045		< 0.01	0.309		> 100	< 0.01	< 0.01	< 0.0154	< 0.01	< 0.01	< 0.022	< 0.01	< 0.0143	0.13	0.0236
COc1ccc(O)c(C(=O)c2ccc(C(=O)O[C@@H]3CCCNC[C@H]3NC(=O)c3ccncc3)cc2)c1F	> 14	> 25		> 6.03	> 7.51	> 25	0.779	> 25	> 25	> 25	0.375	0.869		0.313	0.0788	1.51	0.0852	0.8	0.174	0.918
O=S1(=O)CCN(Cc2ccccn2)CC1	> 100	> 100	> 100		> 100	> 100	> 100	> 100	> 100	> 100										
CCN(CC)CCOc1ccc(/C=C2\CC3C4CCC5=CC(=O)CC[C@]5(C)C4CC[C@]3(C)C2=O)cc1OC (stereo not given in full)	> 100	11.2	11.1		7.78	4.13	6.13	3.85	17.3	10.5	0.701	2.85	3.43		3.02	2.01	2.06	1.93	2.45	2.82
